Experimental data as given in paper PMC8197720, “Targeted radioimmunotherapy with the iodine-131-labeled caerin 1.1 peptide for human anaplastic thyroid cancer in nude mice” (Annals of Nuclear Medicine, 2021).

Key:
[1] = Body weight of CAL-62 tumor-bearing mice under treatment; format: in vivo, BALB/C nude mice; settings: intratumoral, 8 µg F1 and/or 200 µCi 131I every 3 days, three times, n = 5, mean ± SD
Protocol: (§1) To reduce the unnecessary thyroid uptake of ^131I, before the in vivo experiments, all nude mice were fed potassium iodide in a concentration of 0.1% for 3 days to saturate the thyroid. CAL-62 tumor-bearing mice were randomly divided into four groups (n = 5 per group) that received one of the following treatments: PBS, F1 only, ^131I-F1, ^131I only. The mice were injected intratumorally with 100 µl PBS containing 8 µg of F1 peptide, 200 µCi of ^131I or 8 µg of F1 peptide labeled with 200 µCi ^131I every 3 days for a total of three times. Then, 3 days after the final treatment, the mice were sacrificed, and the tumors were isolated and weighed.
Next, we studied whether F1 was able to inhibit CAL-62 cell growth in vivo. Nude mice were subcutaneously injected with 5 × 10^5 CAL-62 cells. When the tumor diameters were close to 6 mm, the mice were treated with 100 µl PBS containing 8 µg of F1 peptide, 200 µCi of ^131I or 8 µg of F1 peptide labeled with 200 µCi ^131I every 3 days for a total of three times. […] The mice were euthanized, and the tumors were isolated and weighed.

CAL-62 tumor = test: CAL-62 subcutaneous xenograft treatment experiment with H&E and TUNEL staining; format: in vivo, BALB/C nude mice; settings: tumor sections after treatment, compared to PBS group
Protocol: as §1

[2] = test system: cervical cancer cell (TC-1); settings: 30 μg of peptide; cited from earlier work
Description: First, ^131I-F1 was successfully synthesized using the chloramine-T method. […] Furthermore, a subcutaneous xenograft model was used to investigate the antitumor activity of ^131I-F ...

Molecule | Weight of the mice three days after the final treatment [1] [g] | H&E staining of tumors (ablation/necrosis of tumor cells) (CAL-62 tumor) | Inhibitory effect on TC-1 in vivo [2]
[131I-].[Na+] [^131I, iodine-131] | 16.43 ± 1.386 | only a few necrosis events | 
caerin 1.9 [F3] |  |  | significant inhibitory effect
